For 14 compounds, IC50 results are on record in patent US20210177828A1, “TAM FAMILY KINASE /AND CSF1R KINASE INHIBITOR AND USE THEREOF” (Nanjing Transthera Biosciences Co., Ltd., priority 2018, published 2021).

Broadly, the IC50 is the concentration that gives 50% inhibition.

Structures are written as SMILES. A value given as a limit tells only on which side of the number the result lay.

For assay [1], the target named is T1, Mer (h) (Homo sapiens, UniProt Q12866).
T1 sequence (Q12866 21-999): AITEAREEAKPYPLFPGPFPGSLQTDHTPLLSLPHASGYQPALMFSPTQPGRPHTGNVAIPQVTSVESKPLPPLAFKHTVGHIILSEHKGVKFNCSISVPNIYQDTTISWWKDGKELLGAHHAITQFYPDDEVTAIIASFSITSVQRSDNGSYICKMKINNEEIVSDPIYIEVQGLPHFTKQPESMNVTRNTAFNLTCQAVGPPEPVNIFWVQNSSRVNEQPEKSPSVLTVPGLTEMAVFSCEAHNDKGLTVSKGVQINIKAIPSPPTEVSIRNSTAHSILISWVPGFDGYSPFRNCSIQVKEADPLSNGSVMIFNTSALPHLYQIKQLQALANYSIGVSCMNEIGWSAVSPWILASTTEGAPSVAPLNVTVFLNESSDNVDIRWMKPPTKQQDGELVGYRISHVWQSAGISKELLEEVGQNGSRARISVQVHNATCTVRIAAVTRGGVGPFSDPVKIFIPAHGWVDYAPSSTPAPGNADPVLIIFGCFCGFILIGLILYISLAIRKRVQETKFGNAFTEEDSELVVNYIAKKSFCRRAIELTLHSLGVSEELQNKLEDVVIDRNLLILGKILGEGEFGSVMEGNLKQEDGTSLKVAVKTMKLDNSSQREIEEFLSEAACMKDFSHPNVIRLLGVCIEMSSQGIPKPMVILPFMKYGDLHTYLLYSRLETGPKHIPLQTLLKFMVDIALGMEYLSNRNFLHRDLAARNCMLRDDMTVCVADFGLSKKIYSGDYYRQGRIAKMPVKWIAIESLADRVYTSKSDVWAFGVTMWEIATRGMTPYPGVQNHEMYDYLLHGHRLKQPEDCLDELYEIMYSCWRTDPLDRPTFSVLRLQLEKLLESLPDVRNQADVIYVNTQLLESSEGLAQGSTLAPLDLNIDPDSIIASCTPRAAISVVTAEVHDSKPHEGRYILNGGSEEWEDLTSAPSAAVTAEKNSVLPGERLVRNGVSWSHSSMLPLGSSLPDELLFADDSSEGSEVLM
The assay can be described thus: Enzymatic activity assay, Mer (h), [γ-33P]-ATP filter assay. The assay is classed as biochemical. The note with it: 10 μM ATP, 40 min room temperature; read-out: Inhibitory activity IC50 Mer(h). The procedure: (§1) Compounds were each dissolved in 100% DMSO to prepare stock solutions with a maximum concentration of 500 μM.
(§2) Compound working solutions (50×) were prepared by diluting a compound stock solution to a final concentration of 500, 150, 50, 15, 5, 1.5, 0.5, 0.15 and 0.05 μM.
An enzyme solution with a final concentration of 3.1 nM was prepared by dissolving Mer (h) enzyme in a mixture of 8 mM MOPS (pH 7.0), 0.2 mM EDTA, 30 mM NaCl and 250 μM GGMEDIYFEFMGGKKK. A Mg/ATP mixture of 10 mM magnesium acetate and 10 μM [γ-^33P]-ATP was used to activate the enzymatic reaction.
(§3) A compound working solution was added to a 384-well plate, with final concentrations of 10,000, 3,000, 1,000, 300, 100, 30, 10, 3 and 1 nM, and then different enzymatic reaction solutions prepared according to the above conditions were added. The reaction solutions were incubated at room temperature for 40 min, and then 0.5% phosphoric acid solutions were added to terminate the reaction. 10 μL of the reaction solution was added dropwise to P30 filter paper, washed 4 times with a 0.425% phosphoric acid solution and once with methanol, and then placed in a scintillation counter for detection. Gray analysis was performed on the results with Image J software, and IC50 values were calculated with GraphPad 5.0 software.

Assay [2] concerns the target T2, Axl (h) (Homo sapiens, UniProt P30530).
T2 sequence (P30530 26-894): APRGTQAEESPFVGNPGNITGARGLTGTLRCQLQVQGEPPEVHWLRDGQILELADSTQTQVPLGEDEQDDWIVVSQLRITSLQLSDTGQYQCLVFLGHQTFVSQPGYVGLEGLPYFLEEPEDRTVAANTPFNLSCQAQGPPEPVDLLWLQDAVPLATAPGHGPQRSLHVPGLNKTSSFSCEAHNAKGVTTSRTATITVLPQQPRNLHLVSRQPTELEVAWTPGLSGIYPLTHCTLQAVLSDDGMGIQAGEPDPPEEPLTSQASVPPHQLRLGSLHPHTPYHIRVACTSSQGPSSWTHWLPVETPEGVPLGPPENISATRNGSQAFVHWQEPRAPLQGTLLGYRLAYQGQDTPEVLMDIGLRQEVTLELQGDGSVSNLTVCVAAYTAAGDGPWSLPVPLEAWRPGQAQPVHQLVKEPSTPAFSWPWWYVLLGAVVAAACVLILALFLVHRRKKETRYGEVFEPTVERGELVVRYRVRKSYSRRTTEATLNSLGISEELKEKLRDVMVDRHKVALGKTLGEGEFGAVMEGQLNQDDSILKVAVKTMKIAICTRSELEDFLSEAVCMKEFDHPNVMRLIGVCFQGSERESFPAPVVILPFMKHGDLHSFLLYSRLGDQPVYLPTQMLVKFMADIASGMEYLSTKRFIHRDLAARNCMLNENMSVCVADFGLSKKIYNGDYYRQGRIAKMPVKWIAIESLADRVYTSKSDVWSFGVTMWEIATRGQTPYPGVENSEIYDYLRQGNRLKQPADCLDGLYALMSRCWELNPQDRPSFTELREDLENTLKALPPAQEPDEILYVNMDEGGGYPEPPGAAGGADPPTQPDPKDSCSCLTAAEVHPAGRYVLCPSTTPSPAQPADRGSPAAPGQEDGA
Description: Enzymatic activity assay, Axl (h), [γ-33P]-ATP filter assay. It counts as biochemical. The settings on record: 10 μM ATP, 40 min room temperature; read-out: Inhibitory activity IC50 Axl(h). The method, then: as §1, §2
An enzyme solution with a final concentration of 1.7 nM was prepared by dissolving Axl (h) enzyme in a mixture of 8 mM MOPS (pH 7.0), 0.2 mM EDTA and 250 μM KKSRGDYMTMQIG. A Mg/ATP mixture of 10 mM magnesium acetate and 10 μM [γ-^33P]-ATP was used to activate the enzymatic reaction.
as §3

As for `COc1cc2nccc(Oc3ccc(NC(=O)c4cn(CC5CCOCC5)cc(-c5ccc(C)cc5)c4=O)nc3)c2cc1OC` [Compound 1, N-(5-((6,7-dimethoxyquinolin-4-yl)oxy)pyridin-2-yl)-4-oxo-1-((tetrahydro-2H-pyran-4-yl)methyl)-5-(p-tolyl)-1,4-dihydropyridin-3-carboxamide], the IC50 in assay [1] was determined as 2 nM; in assay [2], 5 nM.
Turning to `COc1cc2nccc(Oc3ccc(NC(=O)c4nn(CC5CCOCC5)cc(-c5ccc(C)cc5)c4=O)nc3)c2cc1OC` [Compound 2, N-(5-((6,7-dimethoxyquinolin-4-yl)oxy)pyridin-2-yl)-4-oxo-1-((tetrahydro-2H-pyran-4-yl)methyl)-5-(p-tolyl)-1,4-dihydropyridazin-3-carboxamide], the half-inhibitory concentration (IC50) is < 1 nM in assay [1] and 7 nM in assay [2].
Regarding `COc1cc2nccc(Oc3cnc(NC(=O)c4cn(CC5CCOCC5)cc(-c5ccc(C)cc5)c4=O)nc3)c2cc1OC` [Compound 4, N-(5-((6,7-dimethoxyquinolin-4-yl)oxy)pyrimidin-2-yl)-4-oxo-1-((tetrahydro-2H-pyran-4-yl)methyl)-5-(p-tolyl)-1,4-dihydropyridin-3-carboxamide], the concentration for half-maximal inhibition (IC50) in assay [1] came out at 5 nM; in assay [2], 9 nM.
For the compound `COc1cc2nccc(Oc3ccc(NC(=O)c4cn(CC5CCS(=O)(=O)CC5)cc(-c5ccc(C)cc5)c4=O)nc3)c2cc1OC` [Compound 7, N-(5-((6,7-dimethoxyquinolin-4-yl)oxy)pyridin-2-yl)-1-((1,1-dioxotetrahydro-2H-thiopyran-4-yl)methyl)-4-oxo-5-(p-tolyl)-1,4-dihydropyridin-3-carboxamide], the figures for the IC50 in assay [1] and in assay [2] were 50 nM and 20 nM, respectively.
For `COc1cc2nccc(Oc3ccc(NC(=O)c4cn(CC5CC[S+]([O-])CC5)cc(-c5ccc(C)cc5)c4=O)nc3)c2cc1OC` (stereo not shown) [Compound 8, N-(5-((6,7-dimethoxyquinolin-4-yl)oxy)pyridin-2-yl)-1-((1-oxotetrahydro-2H-thiopyran-4-yl)methyl)-4-oxo-5-(p-tolyl)-1,4-dihydropyridin-3-carboxamide], the figures for the IC50 in assay [1] and in assay [2] were 73 nM and 6 nM, respectively.
Taken in the same sequence, the figures for `COc1cc2nccc(Oc3ccc(NC(=O)c4cn(CC5CCSCC5)cc(-c5ccc(C)cc5)c4=O)nc3)c2cc1OC` [Compound 9, N-(5-((6,7-dimethoxyquinolin-4-yl)oxy)pyridin-2-yl)-4-oxo-1-((tetrahydro-2H-thiopyran-4-yl)methyl)-5-(p-tolyl)-1,4-dihydropyridin-3-carboxamide] were 5 nM and 35 nM.
As to `COc1cc2nccc(Oc3ccc(NC(=O)c4cc(-c5ccc(C)cc5)cn(CC5CCOCC5)c4=O)nc3)c2cc1OC` [Compound 13, N-(5-((6,7-dimethoxyquinolin-4-yl)oxy)pyridin 2yl)-2-oxo-1-((tetrahydro-2H-pyran-4-yl)methyl)-5-(p-tolyl)-1,2-dihydropyridin-3-carboxamide], the figures for the IC50 in assay [1] and in assay [2] were 8 nM and 23 nM, respectively.
In the case of `COc1cc2nccc(Oc3cnc(NC(=O)c4nn(CC5CCOCC5)cc(-c5ccc(C)cc5)c4=O)nc3)c2cc1OC` [Compound 16, N-(5-((6,7-dimethoxyquinolin-4-yl)oxy)pyrimidin-2-yl)-4-oxo-1-((tetrahydro-2H-pyran-4-yl)methyl)-5-(p-tolyl)-1,4-dihydropyridazin-3-carboxamide], the values for the IC50 in assay [1] and in assay [2] were 3 nM and 4 nM, respectively.
Taken in the same sequence, the figures for `COc1cc2nccc(Oc3ccc(NC(=O)c4nn(C5CCOCC5)cc(-c5ccc(C)cc5)c4=O)nc3)c2cc1OC` [Compound 17, N-(5-((6,7-dimethoxyquinolin-4-yl)oxy)pyridin-2-yl)-4-oxo-1-(tetrahydro-2H-pyran-4-yl)-5-(p-tolyl)-1,4-dihydropyridazin-3-carboxamide] were 1 nM and 3 nM.
Taken in the same sequence, the figures for `COc1cc2nccc(Oc3cnc(NC(=O)c4nn(C5CCOCC5)cc(-c5ccc(C)cc5)c4=O)nc3)c2cc1OC` [Compound 18, N-(5-((6,7-dimethoxyquinolin-4-yl)oxy)pyrimidin-2-yl)-4-oxo-1-(tetrahydro-2H-pyran-4-yl)-5-(p-tolyl)-1,4-dihydropyridazin-3-carboxamide] were 5 nM and 7 nM.
For the compound `COc1cc2nccc(Oc3ccc(NC(=O)c4cn(C5CCOCC5)cc(-c5ccc(C)cc5)c4=O)nc3)c2cc1OC` [Compound 19, N-(5-((6,7-dimethoxyquinolin-4-yl)oxy)pyridin-2-yl)-4-oxo-1-(tetrahydro-2H-pyran-4-yl)-5-(p-tolyl)-1,4-dihydropyridin-3-carboxamide], the values for the IC50 in assay [1] and in assay [2] were 4 nM and 12 nM, respectively.
Taken in the same sequence, the figures for `COc1cc2nccc(Oc3cnc(NC(=O)c4cn(C5CCOCC5)cc(-c5ccc(C)cc5)c4=O)nc3)c2cc1OC` [Compound 20, N-(5-((6,7-dimethoxyquinolin-4-yl)oxy)pyrimidin-2-yl)-4-oxo-1-(tetrahydro-2H-pyran-4-yl)-5-(p-tolyl)-1,4-dihydropyridin-3-carboxamide] were 14 nM and 4 nM.
On to `COc1cc2nccc(Oc3ccc(NC(=O)c4cn(CC5CCOCC5)cc(-c5ccc(C)cc5)c4=O)nn3)c2cc1OC` [Compound 24, N-(6-((6,7-dimethoxyquinolin-4-yl)oxy)pyridazin-3-yl)-4-oxo-1-((tetrahydro-2H-pyran-4-yl)methyl)-5-(p-tolyl)-1,4-dihydropyridin-3-carboxamide], for which the IC50 in assay [1] amounted to 34 nM; in assay [2] it was 9 nM.
On to `COc1cc2nccc(Oc3ccc(NC(=O)c4cn(CC5CCOCC5)c5ccccc5c4=O)nc3)c2cc1OC` [Compound 25, N-(5-((6,7-dimethoxyquinolin-4-yl)oxy)pyridin-2-yl)-4-oxo-1-((tetrahydro-2H-pyran-4-yl)methyl)-1,4-dihydroquinolin-3-carboxamide], for which the IC50 in assay [1] is 15 nM; in assay [2], 11 nM.
